According to patent US10849906B2, “Use of Akt2 in diagnosis and treatment of tumor” (priority 2015, dated 2020):

Experiments:
[1] = tested on: Akt/FoxO3a/Bim signaling pathway in CCRF-CEM cells; assay: Western blot of Akt/FoxO3a/Bim signaling pathway proteins in CCRF-CEM cells; assay type: cell-based, human; conditions: compared to the only dexamethasone group, FIG. 2B, 2H
Procedure: (§1) The control group was not added with any reagents. All experiments were performed in triplicate.
Protein detection by Western blot: in the examples of the present invention, Akt antibody (rabbit derived), phosphorylated Akt antibody (rabbit derived), FoxO3a antibody (rabbit derived), phosphorylated FoxO3a antibody (rabbit derived) and GAPDH antibody (rabbit derived) and secondary antibodies were all purchased from CST company. The cells were collected in a centrifuge tube and centrifuged at 1000 rpm, the supernatant was discarded and the cells were washed twice with PBS pre-cold at 4° C.; cell lysis buffer (150 mM NaCl, 1% NP-40, 0.1% SDS, 2 μg/ml Aprotinin, 2 μg/ml Leupeptin, 1 mM PMSF, 1.5 mM EDTA, 1 mM sodium vanadate) was added and the cells were lysed on ice for 40 minutes, the cell lysate was centrifuged at 20000 rpm, 4° C. for 15 minutes, and the supernatant was collected; a protein loading buffer for sodium dodecyl sulfate polyacrylamide (SDS-PAGE) gel electrophoresis (1.25 mL 1MTris-HCl (pH6.8), 0.5 g SDS, 25 mg BPB, 2.5 mL glycerol, 5 mL deionized water) was added, followed by boiling for 5 minutes to denature proteins; the loading buffer containing denatured proteins was applied to 10% SDS-PAGE for electrophoresis at 120 V, and then transferred to a PVDF membrane (Sangon Biotech (Shanghai) Co., Ltd.) at 130 V for 1.5 hours; after the membrane transfer was completed, the PVDF membrane was immediately rinsed with a Western washing solution (150 mmol/L NaCl, 50 mmol/L Tris-HCl (pH 7.5)) for 1-2 minutes; added with 5% non-fat milk powder (Shanghai Biotechnology Co., Ltd.), agitated gently and then blocked at room temperature for 60 minutes; a primary antibody diluted appropriately with 5% non-fat milk powder was added, and incubated overnight at room temperature with gentle agitating; the primary antibody was recovered and the membrane was washed three times with the washing solution for 5-10 minutes each; a horseradish peroxidase-labeled secondary antibody diluted appropriately with the Western washing solution was added, and incubated at room temperature for 1 hour with gentle agitating; the secondary antibody was recovered and the membrane was washed three times with the Western washing solution for 5-10 minutes each. An appropriate amount of developing solution (DAB 4 mg, 30% hydrogen peroxide 15 μL, 0.01 M Tris-Cl (pH 7.5) 5 mL) was dropped on the PVDF membrane, the image was detected using a bioluminescence image colorimeter and a gel imaging system (Thermo company), and the quantitative analysis of bands was performed using Image Lab software.
(§2) The cells were cultured in RPMI 1640 complete medium (Gibco company) containing 10% fetal bovine serum (FBS, Gibco company) in an incubator (Thermo company) at 5% CO2 and 37° C. until reaching logarithmic growth phase, then different concentrations of inhibitors and/or dexamethasone/ethanol/DMSO were added to the culture medium, followed by further culturing (for addition of dexamethasone/ethanol/DMSO, for 48 hours, and for addition of inhibitor, for 24 hours), and apoptosis was detected by Annexin V-FITC PI double staining and proteins were detected by Western blot, as described in Example 1.
Methods: CCRF-CEM cells were cultured in RPMI 1640 complete medium (Gibco company) containing 10% fetal bovine serum (FBS, Gibco company) in an incubator (Thermo company) at 5% CO2 and 37° C. until reaching logarithmic growth phase, then DMSO, dexamethasone and different inhibitors (DMSO: 0.1%, dexamethasone: 0.1 μM, inhibitors: 0.8 μM) were added to the culture medium, and further cultured (for addition of dexamethasone or DMSO, for 48 hours, and for addition of inhibitors, for 24 hours), and the proteins were detected by Western blot, as described in Example 1.

[2] = mouse, in vivo
[3] = tested on: CCRF-CEM tumor-bearing mice; assay: Glucocorticoid sensitization in CCRF-CEM tumor-bearing nude mice; assay type: in vivo
Procedure: The overall survival time, tumor size and spleen cell apoptosis of the tumor-bearing mice were measured, and the pathological HE staining was carried out to tumors.
The overall survival, tumor size and spleen size of the tumor-bearing mice were measured, the pathological sections of tumor were for HE and Ki-67 staining, and the pathological sections of spleen were for HE, CD3, and TdT staining.

CCRF-CEM cells = assay: Apoptosis by Annexin V-FITC PI double staining (flow cytometry), CCRF-CEM; assay type: cell-based, human
Procedure: as §1
(§3) Apoptosis was detected by Annexin V-FITC PI double staining method (flow cytometry kit (FITC, PI double staining), Sangon Biotech (Shanghai) Co., Ltd.)), and the collected cells were washed once with phosphate buffered saline (PBS) (135 mM NaCl, 2.7 mM KCl, 1.5 mM KH2PO4 and 8 mM K2HPO4, pH 7.2); the 4× binding buffer was diluted to a 1× binding buffer with deionized water, then the cells were resuspended with 195 ul of the 1× binding buffer at a cell density of 2-5×10^5/ml; 5 μl of Annexin V-FITC was added to the 195 μl of the cell resuspension and mixed, and incubated in dark at room temperature for 10 minutes; the cells were washed once with 200 μl of the 1× binding buffer, and then resuspended in 190 μl of the 1× binding buffer; 10 μl of propidium iodide (20 μg/ml) was added. A flow cytometry device (Beckman company) was used for detection, and the rate of apoptosis was analyzed using Summit software.
as §2
(§4) As described in Example 3, the cells were cultured in RPMI 1640 complete medium containing 10% fetal bovine serum under 5% CO2 and 37° C. until reaching logarithmic growth phase, and then dexamethasone and different concentrations of Akt inhibitor were added to the culture medium, followed by further culture (for addition of dexamethasone/DMSO, for 48 hours, and for addition of the inhibitor, for 24 hours), the apoptosis was detected by Annexin V-FITC PI double staining method and proteins were detected by Western blot as described in Example 1 as well as the cell viability was detected by CCK-8 method.

SP2/0 cells = assay: Apoptosis by Annexin V-FITC PI double staining, SP2/0; assay type: cell-based, mouse; conditions: compared to dexamethasone alone; FIG. 2M
Procedure: as §3, with “software. […]” for “software.”

Jurkat cells = assay: Apoptosis by Annexin V-FITC PI double staining, Jurkat; assay type: cell-based, human; conditions: compared to the only/single dexamethasone group; FIG. 2F, 4J
Procedure: as §3, §2, §4
The transfected cells were selected and passaged for 3 to 5 passages after resuscitation, with Interferin™ as transfection reagent, and the transfection procedure was performed in accordance with the instruction of the transfection reagent. In short, the cells of logarithmic growth phase were plated at 2×10^5/well, the cells were replaced with fresh complete medium (free of antibiotics) during transfection, siRNA was diluted with Opti-MEM and added with an appropriate amount of […]in™ and mixed, incubated at room temperature for 10 minutes prior to being added dropwise to the cells, and the cells were harvested at appropriate time. The cells were transfected with green fluorescein-labeled siRNA (FAM-siRNA) (siRNA at a final concentration of 20 μM, 1.25 μl/well), and the transfection efficiency was observed using a fluorescence microscope 24 hours later. The dexamethasone group was added 24 hours after transfection, followed by culture for further 24 hours, and then the cells were collected for observation; and the equal amount of anhydrous ethanol was added to the control group.

Molt4 cells = assay: Apoptosis by Annexin V-FITC PI double staining, Molt4; assay type: cell-based, human; conditions: compared to the only dexamethasone group; FIG. 2E
Procedure: as §3, with “software. […]” for “software.”

Raji cells = assay: Apoptosis by Annexin V-FITC PI double staining, Raji; assay type: cell-based, human; conditions: compared to dexamethasone alone; FIG. 2K, 2N
Procedure: as §3, with “software. […]” for “software.”

CC[n+]1c(/C=C/N(C)c2ccccc2)n(-c2ccccc2)c2ccc(-c3nc4ccccc4s3)cc21.[I-] [Akt IV]
expression of pro-apoptosis factor Bim, inhibitor plus dexamethasone [1]: up-regulated
expression of phosphorylated FoxO3a, inhibitor plus dexamethasone ([1]; 2I): significantly down-regulated
liver toxicity [2]: obvious liver toxicity
size of subcutaneous tumor ([3]; Akt inhibitor 1.25 μg/mouse plus dexamethasone 0.1 mg/mouse i.p. once daily 7 days, vs single dexamethasone group, FIG. 3A, 3B): synergized with dexamethasone to reduce the size of subcutaneous tumor
overall survival of tumor-bearing mice ([3]; Akt inhibitor in combination with dexamethasone vs single dexamethasone group, FIG. 3D): significantly increased
apoptosis of spleen lymphocytes in the tumor-bearing mice ([3]; Akt inhibitor plus dexamethasone vs single dexamethasone group, FIG. 3E): significantly increased
sensitization effect to glucocorticoids compared with other cell proliferation pathway inhibitors (CCRF-CEM cells; CCRF-CEM, in combination with dexamethasone, FIG. 2L): strongest effect of inducing apoptosis in combination with dexamethasone
apoptosis rate of CCRF-CEM cells, different concentrations of Akt inhibitor in combination with dexamethasone (CCRF-CEM cells; FIG. 2C): increased along with the increased concentration of the Akt inhibitor
apoptosis of CCRF-CEM cells induced by dexamethasone, inhibitor plus dexamethasone (CCRF-CEM cells; compared to dexamethasone alone, FIG. 2A: Akt inhibitor 1 μM, dexamethasone 1 μM, LY294002 30 μM, FIG. 2G, 2J, 2K): significantly increased
apoptosis of SP2/0 cells, inhibitor in combination with dexamethasone (SP2/0 cells): significantly increased
apoptosis of Jurkat cells, inhibitor in combination with dexamethasone (Jurkat cells): significantly increased
apoptosis rate of Molt4 cells, inhibitor in combination with dexamethasone (Molt4 cells): significantly increased
apoptosis of Raji cells, inhibitor in combination with dexamethasone (Raji cells): significantly increased
